In patent publication US11840521B2, “Modulators of Mas-related G-protein receptor X4 and related products and methods” (Escient Pharmaceuticals, Inc., priority 2019, dated 2023):
Where two headings read alike, the source gives them in different places.

Target: MRGPRX4 (Homo sapiens, UniProt Q96LA9)
Test: MRGPR X4 antagonist activity, IP-One Gq HTRF assay in stably transfected HEK cells (versus agonist bilirubin, deoxycholic acid, conjugated bilirubin, urobilin, obeticholic acid or BAR502)
Type: cell-based
Design: expressed in transfected cells; host or cells: HEK cells, stably transfected
Procedure: HEK cells stably transfected to express human MRGPR X4 were maintained in an incubator at 37° C. with 5% CO2 and grown in DMEM media with 10% fetal bovine serum (FBS) and 1% each of sodium pyruvate, Glutamax, penicillin/streptomycin, and Geneticin. HEK cells stably transfected to express mouse MRGPR A1 were maintained in the same incubator and grown in DMEM media with 10% FBS, 1% each of sodium pyruvate, Glutamax, penicillin/streptomycin, Geneticin, and 2.2 mg/mL Hygromycin.
Cells were plated in a 384-well assay plate at 20,000 cells per well in 12 μL of Opti-MEM and kept in an incubator overnight. On the day of the assay, compounds solubilized at 10 mM in DMSO were added as a 10-point curve (10 uM final top concentration with 1:3 serial dilutions) using a Tecan D300E digital dispenser. […] Final concentrations of DMSO were kept consistent across the plate. Plates were incubated in the dark for 1 h at 37° C. and then for 30 minutes at room temperature. IP-1 standards and HTRF detection reagents were added according to the IP-One—Gq Kit purchased from Cisbio (part number 62IPAPEJ) and incubated in the dark for 1 h at room temperature. The plate was read on a Molecular Devices SpectraMax iD5 plate reader. The HTRF ratio was calculated from the raw data and graphed using GraphPad Prism to calculate an IC50 value for each compound.

[1] = versus 10 μM Bilirubin agonist, HEK cells expressing human MRGPR X4, read-out: MRGPR4 Antagonist Activity

MRGPRX4, sequence (Q96LA9 whole entry): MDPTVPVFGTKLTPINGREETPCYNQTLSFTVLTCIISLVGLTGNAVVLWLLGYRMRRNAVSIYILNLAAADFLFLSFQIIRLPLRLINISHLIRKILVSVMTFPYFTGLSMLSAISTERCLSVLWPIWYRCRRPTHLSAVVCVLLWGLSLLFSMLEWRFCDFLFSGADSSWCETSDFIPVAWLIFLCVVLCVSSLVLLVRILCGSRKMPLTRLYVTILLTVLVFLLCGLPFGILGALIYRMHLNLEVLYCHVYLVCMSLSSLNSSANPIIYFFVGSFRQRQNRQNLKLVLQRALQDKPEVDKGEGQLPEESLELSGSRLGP

| Structure (SMILES) | IC50 [1] | other results |
| --- | --- | --- |
| O=C(O)c1cccc(COc2ccc(Cl)c(Cl)c2)c1 [Compound 3-6] | 100 to 500 nM |  |
| Cc1ccc(C(=O)O)cc1COc1ccc(Cl)cc1Cl [Compound 8-2] | 1000 to 2500 nM |  |
| O=C(O)c1cccc(COc2ccc(-c3ccccc3)cc2)c1 [Compound 1-81] | > 2500 nM |  |
| O=C(O)c1cccc(COc2ccc(Cl)cc2C(F)(F)F)n1 [Compound 1-31] | < 100 nM | IC50 (read-out: IC50 (10 μM BAR502) nM, MRGPRX4 antagonists versus 10 μM BAR502 agonist): 11 nM; IC50 (versus 10 μM Bilirubin agonist, read-out: IC50 (Bilirubin agonist)): 10 nM; IC50 (versus 20 μM deoxycholic acid, read-out: IC50 (Deoxycholic Acid agonist)): 5 nM; IC50 (versus 20 μM obeticholic acid, read-out: IC50 (Obeticholic Acid Agonist)): 5 nM; IC50 (versus 50 μM urobilin, read-out: IC50 (Urobilin Agonist)): 7 nM; IC50 (versus 100 μM conjugated bilirubin, read-out: IC50 (Conjugated Bilirubin Agonist)): 9 nM |
| O=C(O)c1cccc(COc2cc3ccccc3cc2Cl)c1 [Compound 1-130] | 100 to 500 nM |  |
| COC(=O)c1cccc(COc2ccc3scnc3c2)c1 [Compound 1-8] | > 2500 nM |  |
| N#Cc1c(COc2ccc(Cl)cc2Cl)cccc1C(=O)O [Compound 4-6] | 100 to 500 nM |  |
| Cc1cc(COc2ccc(C(F)(F)F)c(Cl)c2)cc(C(=O)O)c1 [Compound 4-17] | < 100 nM |  |
| Cc1cc(Cl)ccc1OCc1cccc(C(=O)O)n1 [Compound 1-57] | 100 to 500 nM |  |
| O=C(O)c1cccc(COc2ccc(C(F)(F)F)cn2)c1 [Compound 10-1, 3-(((5-(trifluoromethyl)pyridin-2-yl)oxy)methyl)benzoic acid] | 1000 to 2500 nM |  |
| O=C(O)c1cccc(COc2ccc(F)cc2C(F)(F)F)c1 [Compound 1-91] | 500 to 1000 nM |  |
| O=C(O)c1ccc(COc2ccc(Cl)cc2Cl)s1 [Compound 1-43] | 500 to 1000 nM |  |
| Cc1cc(F)ccc1OCc1cccc(C(=O)O)c1 [Compound 1-94] | 1000 to 2500 nM |  |
| O=C(O)c1cccc(COc2ccc(C(F)(F)F)c(Cl)c2)c1 [Compound 1-118] | < 100 nM |  |
| N#Cc1ccc(OCc2cccc(C(=O)O)c2)cc1 [Compound 1-34] | > 2500 nM |  |
| COC(=O)c1cccc(COc2ccc(C(F)(F)F)cc2Cl)n1 [Compound 1-11] | < 100 nM |  |
| N#Cc1ccc(OCc2cccc(C(=O)O)c2)cc1Cl [Compound 1-90] | 100 to 500 nM |  |
| O=C(O)c1cccc(COc2ccc3c(c2)OC(F)(F)O3)c1 [Compound 1-61] | 500 to 1000 nM |  |
| O=C(O)c1cccc(COc2cccc3c2OC(F)(F)O3)c1 [Compound 1-48] | > 2500 nM |  |
| O=C(O)c1cc(COc2ccc(C(F)(F)F)cc2Cl)cc(C2CC2)c1 [Compound 11-1, 3-((2-chloro-4-(trifluoromethyl)phenoxy)methyl)-5-cyclopropylbenzoic acid] | < 100 nM |  |
| O=C(O)c1cccc(COCc2ccc(Cl)cc2Cl)c1 [Compound 3-8] | 1000 to 2500 nM |  |
| O=C(O)c1cc(F)cc(COc2ccc3ccccc3c2)c1 [Compound 9-3] | < 100 nM |  |
| COC(=O)c1cccc(COc2ccc(Cl)cc2C)n1 [Compound 1-13] | 100 to 500 nM |  |
| Cc1ccc(C(C)(C)C)c(OCc2cccc(C(=O)O)c2)c1 [Compound 1-88] | 1000 to 2500 nM |  |

Now from value to molecule, other results behind:

| IC50 [1] | Structure (SMILES) | other results |
| --- | --- | --- |
| 100 to 500 nM | O=C(NC1CCCC1)c1cccc(COc2ccc(C(F)(F)F)cc2Cl)c1 [Compound 52-23] |  |
| 100 to 500 nM | O=C(NCCO)c1cccc(COc2ccc(C(F)(F)F)cc2Cl)c1 [Compound 52-16] |  |
| < 100 nM | Cc1cc(COc2ccc(C(F)(F)F)cc2Cl)nc(C(=O)O)c1 [Compound 41-2] |  |
| < 100 nM | O=C(O)c1cccc(COc2ccc(C(F)F)cc2Cl)c1 [Compound 33-3] |  |
| 500 to 1000 nM | COCCNC(=O)c1cccc(COc2ccc(C(F)(F)F)cc2Cl)c1 [Compound 52-9] |  |
| < 100 nM | Fc1c(COc2ccc(C(F)(F)F)cc2Cl)cccc1-c1nnn[nH]1 [Compound 17-15] |  |
| 1000 to 2500 nM | O=C(c1ccc(COc2ccc(C(F)(F)F)cc2Cl)cc1)N1CCC2(COC2)C1 [Compound 52-4] |  |
| 100 to 500 nM | O=C(N[C@@H](CO)C(=O)O)c1cccc(COc2ccc(C(F)(F)F)cc2Cl)c1 [Compound 54-9] |  |
| 100 to 500 nM | O=C(Nc1ccccc1)c1cccc(COc2ccc(C(F)(F)F)cc2Cl)c1 [Compound 52-11] |  |
| 1000 to 2500 nM | FC(F)c1cccc(COc2ccc(C(F)(F)F)cc2Cl)c1 [Compound 50-1, 2-chloro-1-((3-(difluoromethyl)benzyl)oxy)-4-(trifluoromethyl)benzene] |  |
